Test results taken from patent US12187709B2 (Genentech, Inc., priority 2021, dated 2025).

Experiments:
Cbl-b = Cbl-b (Homo sapiens (Human), UniProt Q13191); assay: Cbl-b LCK Ub TR-FRET assay (Cbl-b Lck HTRF); format: biochemical; conditions: for IC50: Cbl-b LCK Ub TR-FRET
Procedure, shortened: (§1)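 Signal is read once the detection mix has stood 20 min at ambient temperature. Curves are anchored by DMSO as maximum and by omission of LCK as minimum.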

c-Cbl (residues 47-435) = c-Cbl (residues 47-435) (Homo sapiens (Human), UniProt P22681); assay: c-Cbl SPR assay; format: binding; conditions: 20° C.
Chain of c-Cbl (residues 47-435) (P22681 47-435): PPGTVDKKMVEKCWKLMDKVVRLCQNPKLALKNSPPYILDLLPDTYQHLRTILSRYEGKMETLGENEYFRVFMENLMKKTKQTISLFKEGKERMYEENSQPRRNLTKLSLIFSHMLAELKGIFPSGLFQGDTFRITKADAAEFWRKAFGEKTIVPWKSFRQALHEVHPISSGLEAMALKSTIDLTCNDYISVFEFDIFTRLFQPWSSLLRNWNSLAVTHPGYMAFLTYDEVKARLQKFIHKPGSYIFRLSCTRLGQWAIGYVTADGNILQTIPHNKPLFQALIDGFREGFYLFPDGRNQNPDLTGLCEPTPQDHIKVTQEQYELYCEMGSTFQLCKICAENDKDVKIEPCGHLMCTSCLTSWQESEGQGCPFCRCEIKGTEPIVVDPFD
Procedure, shortened: (§2)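 Values derive from a 1:1 model fitted to multicycle kinetics on captured protein (1300-1500 RU), using six 2-fold concentrations, 60 s contact and dissociation of 120-1200 s. In the chaser format, kd comes from a single-exponential fit of % site occupancy over time.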

[1] = molecular target: Human Cbl-b (residues 40-426) (Homo sapiens (Human), UniProt Q13191); assay: Cbl-b SPR assay; format: binding; conditions: for Fold of selectivity: C-cbl SPR Kd vs Cbl-b SPR Kd; for Kd: SPR, 20° C.
Chain of Human Cbl-b (residues 40-426) (Q13191 40-426): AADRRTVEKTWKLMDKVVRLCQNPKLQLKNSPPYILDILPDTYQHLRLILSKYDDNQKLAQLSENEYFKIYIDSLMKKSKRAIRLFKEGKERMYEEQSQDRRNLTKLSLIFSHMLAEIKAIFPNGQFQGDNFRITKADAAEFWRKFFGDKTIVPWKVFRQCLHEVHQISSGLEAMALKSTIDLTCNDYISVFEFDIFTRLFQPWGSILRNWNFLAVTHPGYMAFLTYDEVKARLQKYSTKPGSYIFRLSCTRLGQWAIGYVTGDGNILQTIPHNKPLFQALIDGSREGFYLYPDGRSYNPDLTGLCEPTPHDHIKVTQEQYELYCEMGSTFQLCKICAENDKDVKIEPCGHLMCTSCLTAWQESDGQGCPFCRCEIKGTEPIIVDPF
Procedure, shortened: as §2

c-Cbl = c-Cbl (Homo sapiens (Human), UniProt P22681); assay: C-Cbl LCK Ub TR-FRET assay (C-cbl Lck HTRF); format: biochemical
Chain of c-Cbl (P22681 47-435): as the sequence (P22681 47-435) above
Procedure, shortened: as §1

[2] = ratio C-cbl Lck HTRF IC50 / Cbl-b Lck HTRF IC50

Chain of Cbl-b (Q13191 40-426): as the sequence (Q13191 40-426) above

Compound	IC50 (Cbl-b) [nM]	fold-selectivity (Cbl-b over C-cbl) (Cbl-b; [2]) [x]	Kd (c-Cbl (residues 47-435)) [nM]	Fold of selectivity [1] [×]	Kd [1] [nM]	IC50 (c-Cbl) [nM]	IC50 (Cbl-b; Example 121) [nM]	(fold-selectivity) Cbl-b and C-Cbl Selectivity (Cbl-b; [2]) [x]
COC[C@H]1C[C@](c2cccc(N3Cc4c(cc(CNC5(C)CCC5)cc4C(F)(F)F)C3=O)c2)(c2nncn2C)C1 [Compound 104, 2-(3-((1r,3r)-3-(methoxymethyl)-1-(4-methyl-4H-1,2,4-triazol-3-yl)cyclobutyl)phenyl)-6-(((1-methylcyclobutyl)amino)methyl)-4-(trifluoromethyl)isoindolin-1-one]	13	1.4	15	9.1	1.6	17	–	–
CO[C@H]1C[C@@](c2cc(NC3CCCC3)cc(N3Cc4c(cc(CNC5(C)CCC5)cc4C(F)(F)F)C3=O)c2)(c2nncn2C)C1 [Compound 218, 2-(3-(cyclopentylamino)-5-((1s,3s)-3-methoxy-1-(4-methyl-4H-1,2,4-triazol-3-yl)cyclobutyl)phenyl)-6-(((1-methylcyclobutyl)amino)methyl)-4-(trifluoromethyl)isoindolin-1-one]	81	10	770	10	77	810	–	–
Cn1cnnc1C1(c2cccc(N3Cc4c(cc(CNC5(C)CCC5)cc4C(F)(F)F)C3=O)c2)CSC1.O=CO [Compound 329, 2-(3-(3-(4-methyl-4H-1,2,4-triazol-3-yl)thietan-3-yl)phenyl)-6-(((1-methylcyclobutyl)amino)methyl)-4-(trifluoromethyl)isoindolin-1-one formate]	11	1.8	19	5.7	3.2	19	–	–
CCOC1CC([C@@H](c2cccc(N3Cc4c(cc(CNC5(C)CCC5)cc4C(F)(F)F)C3=O)c2)c2nncn2C)C1 (single isomer, unassigned) [Compound 267]	37	4.5	190	7.6	25	170	–	–
Cn1cnnc1[C@H](c1cccc(N2Cc3c(cc(CNC4(C)CCC4)cc3C(F)(F)F)C2=O)c1)[C@H]1C[C@H](C)C1 (single isomer, unassigned) [Compound 376, 2-(3-((S)-(4-methyl-4H-1,2,4-triazol-3-yl)((1r,3S)-3-methylcyclobutyl)methyl)phenyl)-6-(((1-methylcyclobutyl)amino)methyl)-4-(trifluoromethyl)isoindolin-1-one]	–	9.0	790	16	46	490	–	–
CO[C@H]1C[C@](c2cccc(N3Cc4c(cc(CNCC5CC5)cc4C(F)(F)F)C3=O)c2)(c2nncn2C)C1 [Compound 415, 6-(((cyclopropylmethyl)amino)methyl)-2-(3-((1r,3r)-3-methoxy-1-(4-methyl-4H-1,2,4-triazol-3-yl)cyclobutyl)phenyl)-4-(trifluoromethyl)isoindolin-1-one]	–	–	63	13	5	48	11	4.2
Cn1cnnc1[C@@H](c1cccc(N2Cc3c(cc(CNC4(C)CCC4)cc3C(F)(F)F)C2=O)c1)C1CC(F)C1 (single isomer, unassigned) [Compound 130]	5.5	1.0	1.6	5.3	0.3	5.7	–	–
Cn1cnnc1[C@@H](c1cccc(N2Cc3c(cc(CNC4(C)CCC4)cc3C(F)(F)F)C2=O)c1)C1(F)COC1 (single isomer, unassigned) [Compound 380]	6	1.2	4	5.0	0.8	7.1	–	–
